The text below walks through data of US20210236577A1, “LIVESTOCK FEED ADDITIVE” (DELACON BIOTECHNIK GMBH, priority 2018, published 2021).

Like-named read-outs stand apart in the source and are kept apart here.

Data set [1] relates to broilers exposed to heat stress. Put plainly: Trial IV: growth performance of broilers under heat stress, naringin dose levels vs betaine. The following applies: for effect on body weight and daily body weight gain vs negative control: pre-heat stress period d 0 to 21. It counts as in vivo, Ross 308 male broilers. The text has this:
1152 one-day old Ross 308 male broilers from a total of 1400 were used in the experiment. Any day-old broilers, showing signs of health problems, injury, or of being too small or in poor condition were excluded in the selection process. Broilers were sexed at the hatchery. All day-old chicks were individually weighted and grouped according to weight. The birds were then assigned to the 36 pens (6 repetitions of 6 treatments), and each pen initially consisted of 34 broilers. On day 4 of the experiment in each pen, the weakest 2 broilers were removed and all pens were equated to 32 birds per pen by negative selection. Birds of the negative control group were fed the basal diet without any further phytogenic additive. The reference group was fed a diet providing 500 mg/kg feed betaine from a natural betaine source (Actibeet®, Agrana). To the diets of groups 3, 4, 5 and 6 the phytogenic premixes with compound “B” were added to achieve final dietary Naringin concentrations of 12/18/24/30 mg/kg of feed.
The trial was carried out at the Delacon Research Facility (Stošíkovice na Louce, Czech Republic). Birds were kept in floor pens, each having an area of 2.1 m^2 (1,65×1,275 m; 2.03 m^2 of usable area=not counting the space occupied with the feeder), with fresh wood shavings as bedding material. Stocking density at the end of the trial was 14,78 chicks/m^2 (38.7 kg/m^2). The building was supplied with artificial, programmable lights, automated central heating and forced ventilation. Temperature was set according to the breeders' recommendations from day 1 to day 21 of age. The onset of heat stress was on day 22 of age. Thereby a cyclic heat stress regime was applied. The heat stress period was from 09:00 in the morning until 17:00 in the afternoon. The average house temperature in this period was 34° C. The “cooling night period” was from 19:00 in the evening until 07:00 in the morning. The average room temperature in this period was 26° C. The time intervals from 07:00 to 09:00 in the morning and from 17:00 to 19:00 in the evening was used to gradually increase or decrease the temperature to 34° C. and 26° C., respectively. In order to increase the humidity of the chicken house under the heat stress regime, towels on the heat panels were moistened 5 times per hour during the heat stress period. Relative humidity was maintained at about 70-80%.
Birds were fed a basal diet, based on wheat, corn, and soybean meal. For each feeding period (starter/grower, grower/finisher) feed was calculated to be iso-nutritive (Table 6). Dietary nutrient concentrations were calculated to fulfill the current recommendations of the broilers according to the breeders' recommendations. According to the applied 2-phase-feeding, a starter/grower diet was offered from days 1 to 21 and a grower/finisher diet from days 22 to 42. The composition of the diets, used in trials IV, V, VI, for the single phases and the calculated nutrient contents are given in Table. All diets were offered to the birds as pelleted feed.
The statistical analyses were performed with the software package SAS. After checking the homogeneity of the data, means were compared by the usual test procedures (Tukey test). Statistical significance was declared at P 0.05, with 0.05<P 0.10 considered as a near-significant trend.

The test system of a further data set is heat shock protein HSP70. It is filed as cell-based, Human. The text has this: ID NO:1); β-actin reverse: [NT] NO:2); HSP70 forward: [NT] ID NO:3); HSP70 reverse: [NT] ID NO:4).
Data set [2] relates to broilers exposed to heat stress. Put plainly: Trial V: growth performance of broilers under heat stress, combinations of naringin with different 1,8-cineole concentrations. It counts as in vivo, Ross 308 male broilers. How it is done: In the dose response trial for compound “B” (Trial IV) beneficial effects on the performance of the broilers under heat stress could be observed. […] Consequently in this trial the additional value of adding 1,8-Cineole (compound “A”) in a dose-dependent manner (6/12/24 mg/kg feed) to compound “B” at constantly 12 mg Naringin/kg diet was evaluated. The addition of 500 mg/kg betaine alone or 500 mg betaine+12 mg 1,8-Cineole/kg served as reference groups.
1224 one-day old Ross 308 male broilers from a total of 1400 were used in the experiment. Any day-old broilers, showing signs of health problems, injury, or of being too small or in poor condition were excluded in the selection process. Broilers were sexed at the hatchery. All day-old chicks were individually weighted and grouped according to weight. The birds were then assigned to the 36 pens (6 repetitions of 6 treatments), and each pen initially consisted of 34 broilers. On day 4 of the experiment in each pen, the weakest 2 broilers were removed and all pens were equated to 32 birds per pen by negative selection.
Birds of the negative control group were fed the basal diet without any further phytogenic additive. […]

For `C[C@@H]1O[C@@H](O[C@H]2[C@H](Oc3cc(O)c4c(c3)O[C@H](c3ccc(O)cc3)CC4=O)O[C@H](CO)[C@@H](O)[C@@H]2O)[C@H](O)[C@H](O)[C@H]1O` [B, Naringin], the “performance values (body weight/weight gain/FCR) vs betaine reference group” value in data set [1] (broilers under heat stress, 12 mg/kg Naringin complete diet vs 500 mg/kg betaine) was “slightly better than in the betaine reference group”. In data set [1] (heat stress d22 to 42, compound B groups 12-30 mg/kg), the “body weight at day 42 compared with untreated control” value is listed as “+80 to +140 g”. Also, in data set [1] (heat stress d22 to 42, lowest compound B dose (12 mg/kg)), the “final body weight compared to the negative control” value is given as “+140 g”. In addition, the “effect on body weight and daily body weight gain vs negative control” value in data set [1] (all doses 12, 18, 24 and 30 mg/kg diet) is “+2.79 to +13%”; in data set [1] (lowest dose 12 mg/kg, significant), “+13%”. For the same compound, the “HSP 70 induction compared to untreated control cells” value with heat shock protein HSP70 (CaCo2, 41° C. 1 hour, 60 mg Naringin/L, adverse effect) is given as −23%. In the data set with heat shock protein HSP70 (CaCo2, 41° C. 1 hour, Naringin 12 to 30 mg/L, significant), the “increase in HSP 70 induction compared to untreated control cells” value is “+24 to +27%”. Moreover, the “increase of HSP 70 induction compared to untreated control cells” value in the data set on heat shock protein HSP70 (CaCo2, 41° C. 1 hour, lowest Naringin concentration tested (6 mg/L), not significant) is “+16%”.

`C[N+](C)(C)CC(=O)[O-]` [betaine, N,N,N-Trimethylammonioacetate, reference compound]: the “body weight at day 42 compared with untreated control” value in data set [1] (heat stress d22 to 42, betaine 500 mg/kg) is reported as “+170 g”. Also, in data set [1] (betaine 500 mg/kg), the “effect on body weight and daily body weight gain vs negative control” value is on record as “+4.9%”. In data set [2] (pre-heat stress period, betaine 500 mg/kg alone or plus 12 mg/kg compound A), the “increase of daily weight gain compared to the negative control” value is 2.5%. Also, in data set [2] (under heat stress conditions d22 to 42, betaine 500 mg/kg, all tested combinations AB), the “growth promoting effect / increase of growth performance compared to the negative control” value is on record as “+2.0%”. The “heat shock protein 70 induction compared to untreated control cells” value in the data set with heat shock protein HSP70 (CaCo2, 41° C. 1 hour, 100, 250 and 1000 mg/L betaine) is −7 to −19%. Further, the “heat shock protein 70 response compared to untreated control cells” value with heat shock protein HSP70 (CaCo2, 41° C. 1 hour, 500 and 2000 mg/L betaine, non-significant) is “+10 to +12%”.

Regarding Betalain [C], in the data set on heat shock protein HSP70 (Caco-2), the “HSP 70 induction in CaCo2 cells over the control (in words)” value was “improve HSP 70 induction”.

Consider `CC12CCC(CC1)C(C)(C)O2` [A, 1,8 Cineole], for which the “increase in HSP 70 induction compared to control cells” value with heat shock protein HSP70 (CaCo2, 41° C. 1 hour, 7.5 mg 1,8 Cineole/L) turned out to be 15%. Besides, the “increase of HSP 70 gene expression” value stood at 22% with heat shock protein HSP70 (CaCo2, 41° C. 1 hour, 15 mg 1,8-Cineole/L) and 24% in the data set with heat shock protein HSP70 (CaCo2, 41° C. 1 hour, 30 mg 1,8-Cineole/L). In addition, the “increase of HSP 70 expression” value in the data set on heat shock protein HSP70 (CaCo2, 41° C. 1 hour, highest dose tested, 45 mg 1,8-Cineole/L) is 44%. Moreover, the “increase of HSP 70 expression / induction, single substances alone vs combination (FIG. 3 E)” value with heat shock protein HSP70 (CaCo2 under heat stress, at the tested levels (not given)) is reported as 20.8%.
